# Experiments:
# [1] = system: left atrium cordis of guinea pigs; test: Functional refractory period and contractile force of the electrically stimulated left atrium cordis (paired stimulation, method of Govier); set-up: species or system female albino Pirbright-white guinea pigs; details: for EC (125%) / IC25: Cavia porcellus, administered as di-tartrate; for EC (125%): 0.3 h, 18 minutes after administration, read-out: FRP 125% (concentration prolonging functional refractory period to 125%); for IC25: left atrium, read-out: F 75% (concentration reducing contractile force to 75% of initial value); for quotient F 75%/FRP 125%: therapeutic index of the anti-arrhythmic action on the isolated organ
# Excerpt: 148, No. 1, pages 100-105 (1965). All anti-arrhythmic drugs which at present are used in therapy and which differ in their chemical structure are distinguished by being able to prolong the functional refractory period. In addition thereto said method permits to detect the effects of compounds on the contractile force of the myocardium. […] Said quotient supplies information regarding the therapeutic index of the anti-arrhythmic action of a compound on the isolated organ. See P. Greef in Verhandlung der Deutschen Gesellschaft fuer Kreislaufforschung vol. 35, pages 88-97 (1969).
# [2] = system: right atrium cordis of guinea pigs; test: Heart rate of the spontaneously beating, isolated right atrium cordis; set-up: species or system female albino Pirbright-white guinea pigs; details: Cavia porcellus, 20 min; 20 minutes after administration; administered as di-tartrate; read-out: FRQ 75% (concentration decreasing heart rate to 75% of initial value)
# Experimental: The direct effect of the active compound on the heart rate (FPQ) was tested on the spontaneously beating, isolated right atrium cordis of female albino Pirbright-white guinea pigs (GP) of the weight class between 300 g. and 400 g. In Table 3 there is given, as FPQ 75%, the concentration in μmole/l. by which a decrease of the heart rate to 75% of the initial value is achieved 20 minutes after administration of the compound to be tested.
# anesthetized rats = test: Effect on heart rate, systolic blood pressure and double product (myocardial oxygen consumption, method of Neill); assay type: in vivo; details: administered as ditartrate; for Change DP: vs initial value
# Experimental: The influence of the active compounds according to the present invention on myocardial oxygen consumption has been investigated in animal models and determined according to the method of Neill as described by W. A. Neill, H. H. Levine, R. J. Wagman, and P. Gorlin in Circulation Research, Vol. 12, page 163 (1963). The blood circulation measurements which are required for these tests, namely, systolic blood pressure and heart rate, were determined according to the design of experimental procedure as described by G. Buschmann, W. Schumacher, R. Budden, and U. G. Kuehl in J. Cardiovasc. Pharmacol., Vol. 2, pages 777-795 (1980). As is evident from the following Table 1, the active compound reduces the product* of heart rate and systolic blood pressure. Thus, the tested compound reduces the consumption of oxygen to be supplied to the heart. This effect is observed in intravenous administration (i.v.) as well as on intraduodenal administration (i.d.) and is to be attributed to the action of the compound tested.
# Effect upon heart rate (FRQ), systolic blood pressure (Ps)
# and the double product (DP) determined on anesthetized rats
# [3] = system: aconitine-induced ventricular extrasystoles in rats; test: Anti-arrhythmic activity, aconitine test in rats (method of Raschak); assay type: in vivo, male Wistar rats; details: for Change in time to occurrence of ES: vs vehicle control
# Experimental: When administering aconitine to rats by continuous intravenous infusion, there are observed in the electrocardiogram considerable disturbances in the heartbeat, such as, for instance, ventricular extrasystoles. The tested animals were male Wistar rats of the weight class between 250 g. and 350 g. The influence of an active compound according to the present invention upon such rats after an aconitine infusion was determined according to the method of Raschak as described by M. Raschak in Arzneim. Forsch. vol. 25, No. 4, pages 639-641 (1975). […] The active compound was administered intravenously in the form of an isotonic sodium chloride solution, i.e. the vehicle, in a dose of 6.0 μmole/kg. The dose administered is one twenthieth of the lethal dose (LD50) as determined on mice. […] After intravenous administration of the active compound to be tested and of the control solution, the aconitine solution was administered by infusion in an amount which was constant per time unit. The period of time was measured within which ventricular extrasystoles (ES) were observed. Said period of time, in minutes, is given in Table 2 as well as the difference in the period of time observed on administering the test compound and the control solution.
# One of the active compounds tested is the compound of Example 3, No. 302, i.e., N,N-di-n-butyl-9,9-dimethyl-3,7-diaza bicyclo-(3,3,1)-nonane as described hereinafter. There are also given the results obtained by testing an equitoxic amount of the drug known under the trademark "Lidocain", i.e., 2-(diethylamino)-N-(2,6-dimethyl phenyl)-acetamide.
# Anti-arrhythmic activity determined by the […]
# in vivo = details: mouse, po, peroral administration, mice
Structure (SMILES),EC (125%) [1] [µM],IC25 [1] [µM],quotient F 75%/FRP 125% [1],IC25 [2] [µM],"DP (double product of heart rate and systolic blood pressure) (anesthetized rats; 13.5 μmole/kg i.v., initial value 39) [mm.Hg/min. × 1000]","Ps (systolic blood pressure) (anesthetized rats; 13.5 μmole/kg i.v., initial value 104) [mm.Hg]","FRQ (heart rate) (anesthetized rats; 13.5 μmole/kg i.v., initial value 372) [min⁻¹]",Change DP (anesthetized rats; 13.5 μmole/kg i.v.) [%],"DP (double product of heart rate and systolic blood pressure) (anesthetized rats; 100 μmole/kg i.d., initial value 41) [mm.Hg/min. × 1000]","Ps (systolic blood pressure) (anesthetized rats; 100 μmole/kg i.d., initial value 101) [mm.Hg]","FRQ (heart rate) (anesthetized rats; 100 μmole/kg i.d., initial value 406) [min⁻¹]",Change DP (anesthetized rats; 100 μmole/kg i.d.) [%],"Time to occurrence of ES (ventricular extrasystoles) ([3]; 6.0 μmole/kg i.v., vehicle control 6.7 min, administered as di-tartrate) [min]","Change in time to occurrence of ES ([3]; 6.0 μmole/kg i.v., administered as di-tartrate)",LD50 (in vivo) [µmol/kg],"Time to occurrence of ES (ventricular extrasystoles) ([3]; 10.0 μmole/kg i.v. (equitoxic amount), vehicle control 6.3 min) [min]",Change in time to occurrence of ES ([3]; 10.0 μmole/kg i.v. (equitoxic amount))
"CN1CC2CN(C)CC(C1)C2(C)C [Comparative compound, N,N',9,9-tetramethyl diaza bicyclo-(3,3,1)-nonane, reference compound]",122,~215,about 2,~215,,,,,,,,,,,,,
"CCCCN1CC2CN(CCCC)CC(C1)C2(C)C [Example 3, No. 302, N,N'-di-n-butyl-9,9-dimethyl-3,7-diaza bicyclo-(3,3,1)-nonane]",1,104,104,3,25,147,174,-36,30,125,238,-27,8.2,+23%,1040,,
"CCN(CC)CC(=O)Nc1c(C)cccc1C [Lidocain, 2-(diethylamino)-N-(2,6-dimethylphenyl)-acetamide, reference compound]",,,,,,,,,,,,,,,,6.6,+5%
